# Assay results as given in PubChem BioAssay AID1963980 (Molecular Pharmacology Branch, DTP, NCI, 2024).
# Tested on: 475296-252-R-J1-PDC spheroid viability
# Test: Anticancer human tumor 475296-252-R-J1-PDC patient-derived rectal carcinoma cell line growth inhibition [PI3K]
# Details: spheroids with HUVEC and MSC; for IC50: curve of first compound; for viability, T/C: stronger effect = lower value
# Outline: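 Tumor cells grown as multi-cell spheroids with HUVEC endothelial cells and MSC fibroblast-like stroma were treated with targeted agents combined with inavolisib, alpelisib, duvelisib or copanlisib. Doses fell in half-log steps from near clinical Cmax, else from 10 microM. Viability was measured.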
# [1] = second compound 0.0316 µM, first compound 0.0316 µM
# [2] = second compound 0.0316 µM, first compound 0.1 µM
# [3] = second compound 0.0316 µM, first compound 0.316 µM
# [4] = second compound 0.0316 µM, first compound 1 µM
# [5] = second compound 0.0316 µM, first compound 3.16 µM
# [6] = second compound 0.0316 µM, first compound 10 µM
# [7] = second compound 0.1 µM, first compound 0.0316 µM
# [8] = second compound 0.1 µM, first compound 0.1 µM
# [9] = second compound 0.1 µM, first compound 0.316 µM
# [10] = second compound 0.1 µM, first compound 1 µM
# [11] = second compound 0.1 µM, first compound 3.16 µM
# [12] = second compound 0.1 µM, first compound 10 µM
# [13] = second compound 0.316 µM, first compound 0.0316 µM
# [14] = second compound 0.316 µM, first compound 0.1 µM
# [15] = second compound 0.316 µM, first compound 0.316 µM
# [16] = second compound 0.316 µM, first compound 1 µM
# [17] = second compound 0.316 µM, first compound 3.16 µM
# [18] = second compound 0.316 µM, first compound 10 µM
# [19] = second compound 1 µM, first compound 0.0316 µM
# [20] = second compound 1 µM, first compound 0.1 µM
# [21] = second compound 1 µM, first compound 0.316 µM
# [22] = second compound 1 µM, first compound 1 µM
# [23] = second compound 1 µM, first compound 3.16 µM
# [24] = second compound 1 µM, first compound 10 µM
# [25] = second compound 3.16 µM, first compound 0.0316 µM
# [26] = second compound 3.16 µM, first compound 0.1 µM
# [27] = second compound 3.16 µM, first compound 0.316 µM
# [28] = second compound 3.16 µM, first compound 1 µM
# [29] = second compound 3.16 µM, first compound 3.16 µM
# [30] = second compound 3.16 µM, first compound 10 µM
# [31] = second compound 10 µM, first compound 0.0316 µM
# [32] = second compound 10 µM, first compound 0.1 µM
# [33] = second compound 10 µM, first compound 0.316 µM
# [34] = second compound 10 µM, first compound 1 µM
# [35] = second compound 10 µM, first compound 3.16 µM
# [36] = second compound 10 µM, first compound 10 µM
# [37] = second compound 0.0316 µM, first compound 0.00316 µM
# [38] = second compound 0.0316 µM, first compound 0.01 µM
# [39] = second compound 0.1 µM, first compound 0.00316 µM
# [40] = second compound 0.1 µM, first compound 0.01 µM
# [41] = second compound 0.316 µM, first compound 0.00316 µM
# [42] = second compound 0.316 µM, first compound 0.01 µM
# [43] = second compound 1 µM, first compound 0.00316 µM
# [44] = second compound 1 µM, first compound 0.01 µM
# [45] = second compound 3.16 µM, first compound 0.00316 µM
# [46] = second compound 3.16 µM, first compound 0.01 µM
# [47] = second compound 10 µM, first compound 0.00316 µM
# [48] = second compound 10 µM, first compound 0.01 µM
# 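Note: spheroids exposed to agents for seven days before readout.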
smiles,measurement,setting,value
CC(C)NCC(C(=O)N1CCN(c2ncnc3c2C(C)CC3O)CC1)c1ccc(Cl)cc1 (stereo not drawn) + CC(Nc1ncnc2nc[nH]c12)c1cc2cccc(Cl)c2c(=O)n1-c1ccccc1,IC50,second compound 0.0316 µM,> 10 µM
same,IC50,second compound 0.1 µM,> 10 µM
same,IC50,second compound 0.316 µM,> 10 µM
same,IC50,second compound 1 µM,> 10 µM
same,IC50,second compound 3.16 µM,> 10 µM
same,IC50,second compound 10 µM,> 10 µM
same,"viability, T/C",[1],89.7%
same,"viability, T/C",[2],104%
same,"viability, T/C",[3],80.3%
same,"viability, T/C",[4],77.3%
same,"viability, T/C",[5],56.2%
same,"viability, T/C",[6],65.5%
same,"viability, T/C",[7],101%
same,"viability, T/C",[8],93.2%
same,"viability, T/C",[9],85.2%
same,"viability, T/C",[10],73.3%
same,"viability, T/C",[11],68.8%
same,"viability, T/C",[12],63.2%
same,"viability, T/C",[13],117%
same,"viability, T/C",[14],96.4%
same,"viability, T/C",[15],89.1%
same,"viability, T/C",[16],76%
same,"viability, T/C",[17],59.9%
same,"viability, T/C",[18],66.3%
same,"viability, T/C",[19],100%
same,"viability, T/C",[20],103%
same,"viability, T/C",[21],76%
same,"viability, T/C",[22],61.8%
same,"viability, T/C",[23],54.4%
same,"viability, T/C",[24],65.5%
same,"viability, T/C",[25],93.1%
same,"viability, T/C",[26],85.5%
same,"viability, T/C",[27],82.5%
same,"viability, T/C",[28],76.1%
same,"viability, T/C",[29],67.9%
same,"viability, T/C",[30],50.7%
same,"viability, T/C",[31],98%
same,"viability, T/C",[32],84.1%
same,"viability, T/C",[33],94.7%
same,"viability, T/C",[34],67.1%
same,"viability, T/C",[35],59.6%
same,"viability, T/C",[36],56%
CCN1CCN(Cc2ccc(Nc3ncc(F)c(-c4cc(F)c5nc(C)n(C(C)C)c5c4)n3)nc2)CC1 + CC(Nc1ncnc2nc[nH]c12)c1cc2cccc(Cl)c2c(=O)n1-c1ccccc1,IC50,second compound 0.0316 µM,> 1 µM
same,IC50,second compound 0.1 µM,> 1 µM
same,IC50,second compound 0.316 µM,> 1 µM
same,IC50,second compound 1 µM,> 1 µM
same,IC50,second compound 3.16 µM,> 1 µM
same,IC50,second compound 10 µM,> 1 µM
same,"viability, T/C",[37],87%
same,"viability, T/C",[38],101%
same,"viability, T/C",[1],99.6%
same,"viability, T/C",[2],86.1%
same,"viability, T/C",[3],104%
same,"viability, T/C",[4],92%
same,"viability, T/C",[39],87.8%
same,"viability, T/C",[40],90.9%
same,"viability, T/C",[7],103%
same,"viability, T/C",[8],102%
same,"viability, T/C",[9],105%
same,"viability, T/C",[10],89.1%
same,"viability, T/C",[41],95.1%
same,"viability, T/C",[42],102%
same,"viability, T/C",[13],98.3%
same,"viability, T/C",[14],101%
same,"viability, T/C",[15],89.4%
same,"viability, T/C",[16],81.2%
same,"viability, T/C",[43],102%
same,"viability, T/C",[44],92.3%
same,"viability, T/C",[19],93.8%
same,"viability, T/C",[20],98.5%
same,"viability, T/C",[21],94.6%
same,"viability, T/C",[22],75.1%
same,"viability, T/C",[45],87.2%
same,"viability, T/C",[46],99.3%
same,"viability, T/C",[25],85.1%
same,"viability, T/C",[26],102%
same,"viability, T/C",[27],92.1%
same,"viability, T/C",[28],79.5%
same,"viability, T/C",[47],95.5%
same,"viability, T/C",[48],82.4%
same,"viability, T/C",[31],87.4%
same,"viability, T/C",[32],101%
same,"viability, T/C",[33],96.9%
same,"viability, T/C",[34],70.5%
C[C@@H](NC(=O)c1ncnc(N)c1Cl)c1ncc(C(=O)Nc2cc(C(F)(F)F)c(Cl)cn2)s1 + CC(Nc1ncnc2nc[nH]c12)c1cc2cccc(Cl)c2c(=O)n1-c1ccccc1,IC50,second compound 0.0316 µM,> 10 µM
same,IC50,second compound 0.1 µM,> 10 µM
same,IC50,second compound 0.316 µM,> 10 µM
same,IC50,second compound 1 µM,> 10 µM
same,IC50,second compound 3.16 µM,> 10 µM
same,IC50,second compound 10 µM,> 10 µM
same,"viability, T/C",[1],77.6%
same,"viability, T/C",[2],90.2%
same,"viability, T/C",[3],109%
same,"viability, T/C",[4],114%
same,"viability, T/C",[5],102%
same,"viability, T/C",[6],91.5%
same,"viability, T/C",[7],91%
same,"viability, T/C",[8],92.5%
same,"viability, T/C",[9],96.7%
same,"viability, T/C",[10],109%
same,"viability, T/C",[11],115%
same,"viability, T/C",[12],92%
same,"viability, T/C",[13],89.7%
same,"viability, T/C",[14],86.4%
same,"viability, T/C",[15],88.2%
same,"viability, T/C",[16],96.7%
same,"viability, T/C",[17],108%
same,"viability, T/C",[18],92.2%
same,"viability, T/C",[19],94.4%
same,"viability, T/C",[20],90.5%
same,"viability, T/C",[21],91%
same,"viability, T/C",[22],112%
same,"viability, T/C",[23],106%
same,"viability, T/C",[24],75.5%
same,"viability, T/C",[25],89.3%
same,"viability, T/C",[26],94.8%
same,"viability, T/C",[27],82%
same,"viability, T/C",[28],102%
same,"viability, T/C",[29],110%
same,"viability, T/C",[30],67.4%
same,"viability, T/C",[31],87.7%
same,"viability, T/C",[32],84.8%
same,"viability, T/C",[33],93.5%
same,"viability, T/C",[34],92.8%
same,"viability, T/C",[35],87.1%
same,"viability, T/C",[36],63.4%
Cn1ncnc1[C@H]1c2n[nH]c(=O)c3cc(F)cc(c23)N[C@@H]1c1ccc(F)cc1 + CC(Nc1ncnc2nc[nH]c12)c1cc2cccc(Cl)c2c(=O)n1-c1ccccc1,IC50,second compound 0.0316 µM,> 0.1 µM
same,IC50,second compound 0.1 µM,> 0.1 µM
same,IC50,second compound 0.316 µM,> 0.1 µM
same,IC50,second compound 1 µM,> 0.1 µM
same,IC50,second compound 3.16 µM,> 0.1 µM
same,IC50,second compound 10 µM,> 0.1 µM
same,"viability, T/C","second compound 0.0316 µM, first compound 0.000316 µM",94.1%
same,"viability, T/C","second compound 0.0316 µM, first compound 0.001 µM",94.3%
same,"viability, T/C",[37],87.4%
same,"viability, T/C",[38],90.7%
same,"viability, T/C",[1],107%
same,"viability, T/C",[2],96.8%
same,"viability, T/C","second compound 0.1 µM, first compound 0.000316 µM",96.5%
same,"viability, T/C","second compound 0.1 µM, first compound 0.001 µM",87.5%
same,"viability, T/C",[39],96.8%
same,"viability, T/C",[40],91.6%
same,"viability, T/C",[7],95.7%
same,"viability, T/C",[8],88.9%
same,"viability, T/C","second compound 0.316 µM, first compound 0.000316 µM",91%
same,"viability, T/C","second compound 0.316 µM, first compound 0.001 µM",85.8%
same,"viability, T/C",[41],98.9%
same,"viability, T/C",[42],99.5%
same,"viability, T/C",[13],102%
same,"viability, T/C",[14],106%
same,"viability, T/C","second compound 1 µM, first compound 0.000316 µM",85.8%
same,"viability, T/C","second compound 1 µM, first compound 0.001 µM",103%
same,"viability, T/C",[43],104%
same,"viability, T/C",[44],103%
same,"viability, T/C",[19],112%
same,"viability, T/C",[20],92.7%
same,"viability, T/C","second compound 3.16 µM, first compound 0.000316 µM",89.7%
same,"viability, T/C","second compound 3.16 µM, first compound 0.001 µM",86%
same,"viability, T/C",[45],91%
same,"viability, T/C",[46],80.7%
same,"viability, T/C",[25],90.1%
same,"viability, T/C",[26],89.8%
same,"viability, T/C","second compound 10 µM, first compound 0.000316 µM",97%
same,"viability, T/C","second compound 10 µM, first compound 0.001 µM",85%
same,"viability, T/C",[47],85.4%
same,"viability, T/C",[48],90.7%
same,"viability, T/C",[31],95.2%
same,"viability, T/C",[32],83.7%
